# Assay results taken from patent publication US20170253607A1, “LONG-ACTING HIV PROTEASE INHIBITOR” (Shionogi & Co., Ltd., priority 2014, published 2017).
# Molecular target: HIV-1 PR (Human immunodeficiency virus type 1 group M subtype B, UniProt P04585)
# Experiment: HIV-protease inhibitory activity assay (FRET peptide substrate)
# Type: biochemical
# Conditions: Test Example 1
# Procedure, shortened: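 Fluorescence recovery at ex 485/em 535 nm reports cleavage of a quenched FRET peptide (2 μmol/L final) by 0.83 ng enzyme over 60 minutes at room temperature. Buffer was NaAc pH 4.8 with NaCl, EDTA, DTT and Tween 20. IC50 values came from four-parameter logistic regression of % inhibition.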
row,Compound,IC50
1,CCCCN(Cc1ccccc1-c1sc2c(c1C(=O)O)CC(C)(C)CC2)c1ccc(CC(NC(=O)OC2COC3(C)OCCC23)C(O)CN(CC(C)C)S(=O)(=O)c2ccc(OC)cc2)cc1 (stereo not drawn) [Compound I-457],5.63 nM
2,COc1ccc(S(=O)(=O)N(CC(C)C)CC(O)C(Cc2ccc(N(Cc3ccco3)Cc3ccccc3-c3sc4c(c3C(=O)O)CC(C)(C)CC4)cc2)NC(=O)OC2COC3(C)OCCC23)cc1 (stereo not drawn) [Compound I-420],13.1 nM
3,CC(C)CN(CC(O)C(Cc1ccc(OCc2ccccc2-c2sc3c(c2C(=O)O)CC(C)(C)CC3)cc1)NC(=O)OC1COC2(C)OCCC12)S(=O)(=O)c1ccc2nc(N(C)CCc3ccccc3)sc2c1 (stereo not drawn) [Compound I-794],38.4 nM
4,COc1ccc(S(=O)(=O)N(CC(C)C)CC(O)C(Cc2ccc(OCCNC(=O)c3cc(C)cc(C)c3O)cc2)NC(=O)OC2COC3(C)OCCC23)cc1 (stereo not drawn) [Compound I-171],0.94 nM
5,COc1ccc(S(=O)(=O)N(CC(C)C)CC(O)C(Cc2ccc(OCc3ccccc3-c3ccc4c(c3)C(=O)C(C3CCCCC3)C4=O)cc2)NC(=O)OC2COC3(C)OCCC23)cc1 (stereo not drawn) [Compound I-72],1.45 nM
6,CC(C)CN(CC(O)C(Cc1ccc(N(C)Cc2ccccc2C(=O)Nc2sc3c(c2C(=O)O)CC(C)(C)CC3)cc1)NC(=O)OC1COC2OCCC12)S(=O)(=O)c1ccc2c(c1)OCO2 (stereo not drawn) [Compound I-879],3.78 nM
7,COc1ccc(S(=O)(=O)N(CC(C)C)CC(O)C(Cc2ccc(N(C)Cc3cc(C)ccc3C(=O)Nc3sc4c(c3C(=O)O)CC(C)(C)CC4)cc2)NC(=O)OC2COC3(C)OCCC23)cc1 (stereo not drawn) [Compound I-746],2.81 nM
8,COc1ccc(S(=O)(=O)N(CC(C)C)CC(O)C(Cc2ccc(OCc3ccccc3-c3sc(-c4ccccc4)cc3C(=O)O)cc2)NC(=O)OC2COC3OCCC23)cc1 (stereo not drawn) [Compound I-848],0.89 nM
9,COc1ccc(S(=O)(=O)N(CC(C)C)CC(O)C(Cc2ccc(NC(=O)c3sc4c(c3C(=O)O)CC(C)(C)CC4)cc2)NC(=O)OC2COC3(C)OCCC23)cc1 (stereo not drawn) [Compound I-208],1.86 nM
10,COc1ccc(S(=O)(=O)N(CC(C)C)CC(O)C(Cc2ccc(NCc3ccc(-c4sc5c(c4C(=O)O)CC(C)(C)CC5)c(F)c3)cc2)NC(=O)OC2COC3(C)OCCC23)cc1 (stereo not drawn) [Compound I-291],3.54 nM
11,COc1ccc(S(=O)(=O)N(CC(C)C)C[C@@H](O)[C@H](Cc2ccc(NC(=O)Nc3sc4c(c3C(=O)O)CC(C)(C)CC4)cc2)NC(=O)O[C@H]2CO[C@@]3(C)OCC[C@@H]23)cc1 [Compound I-192],2.27 nM
12,COc1ccc(S(=O)(=O)N(CC(C)C)CC(O)C(Cc2ccc(Nc3cccc(-c4sc5c(c4C(=O)O)CC(C)(C)CC5)c3)cc2)NC(=O)OC2COC3(C)OCCC23)cc1 (stereo not drawn) [Compound I-478],2.25 nM
13,CC(C)CN(CC(O)C(Cc1ccc(OC(C(=O)O)c2ccc(-c3ccc(F)cc3F)cc2)cc1)NC(=O)OC1COC2(C)OCCC12)S(=O)(=O)c1ccc2ncsc2c1 (stereo not drawn) [Compound I-154],1.87 nM
14,COc1ccc(S(=O)(=O)N(CC(C)C)CC(O)C(Cc2ccc(OC3CC(N(C)c4ccccc4-c4sc5c(c4C(=O)O)CC(C)(C)CC5)C3)cc2)NC(=O)OC2COC3(C)OCCC23)cc1 (stereo not drawn) [Compound I-382],7.26 nM
15,COc1ccc(S(=O)(=O)N(CC(C)C)CC(O)C(Cc2ccc(NCc3ccccc3-c3c(C(=O)O)[nH]c4c3CCCC4=O)cc2)NC(=O)OC2COC3(C)OCCC23)cc1 (stereo not drawn) [Compound I-495],1.48 nM
16,COc1ccc(S(=O)(=O)N(CC(C)C)CC(O)C(Cc2ccc(NCc3cc(OC(F)(F)F)ccc3-c3sc4c(c3C(=O)O)CC(C)(C)CC4)cc2)NC(=O)OC2COC3(C)OCCC23)cc1 (stereo not drawn) [Compound I-678],5.48 nM
17,COc1ccc(S(=O)(=O)N(CC(C)C)CC(O)C(Cc2ccc(N(C)Cc3ccc(Oc4ccccc4)cc3-c3sc4c(c3C(=O)O)CC(C)(C)CC4)cc2)NC(=O)OC2COC3(C)OCCC23)cc1 (stereo not drawn) [Compound I-696],12.2 nM

row,Compound,IC50
1,COc1ccc(S(=O)(=O)N(CC(C)C)CC(O)C(Cc2ccc(NCc3cc(Oc4ccccn4)ccc3-c3sc4c(c3C(=O)O)CC(C)(C)CC4)cc2)NC(=O)OC2COC3(C)OCCC23)cc1 (stereo not drawn) [Compound I-685],2.98 nM
2,COc1ccc(S(=O)(=O)N(CC(C)C)CC(O)C(Cc2ccc(-c3ccc(-c4sc5c(c4C(=O)O)CC(C)(C)CC5)cc3)cc2)NC(=O)OC2COC3(C)OCCC23)cc1 (stereo not drawn) [Compound I-183],2.39 nM
3,COc1ccc(S(=O)(=O)N(CC(C)C)CC(O)C(Cc2ccc(N(C)C(=O)Nc3ccccc3-c3sc4c(c3C(=O)O)CC(C)(C)CC4)cc2)NC(=O)OC2COC3(C)OCCC23)cc1 (stereo not drawn) [Compound I-269],3.41 nM
4,COc1ccc(S(=O)(=O)N(CC(C)C)CC(O)C(Cc2ccc(NCc3cc(C(F)(F)F)ccc3C(=O)Nc3sc4c(c3C(=O)O)CC(C)(C)CC4)cc2)NC(=O)OC2COC3(C)OCCC23)cc1 (stereo not drawn) [Compound I-691],6.44 nM
5,COc1ccc(S(=O)(=O)N(CC(C)C)CC(O)C(Cc2ccc(OCc3csc(-c4sc5c(c4C(=O)O)CC(C)(C)CC5)n3)cc2)NC(=O)OC2COC3(C)OCCC23)cc1 (stereo not drawn) [Compound I-87],1.32 nM
6,COc1ccc(S(=O)(=O)N(CC(C)C)CC(O)C(Cc2ccc(-c3sc4c(c3C(=O)O)CC(C)(C)CC4)cc2)NC(=O)OC2COC3(C)OCCC23)cc1 (stereo not drawn) [Compound I-41],1.11 nM
7,COc1ccc(S(=O)(=O)N(CC(C)C)CC(O)C(Cc2ccc(OCc3cccc(OC)c3-c3sc4c(c3C(=O)O)CC(C)(C)CC4)cc2)NC(=O)OC2COC3(C)OCCC23)cc1 (stereo not drawn) [Compound I-186],2.14 nM
8,COc1ccc(S(=O)(=O)N(CC(C)C)CC(O)C(Cc2ccc(OCc3ccccc3-c3ccc4c(c3)C(=O)C(c3ccc(C(F)(F)F)cc3)C4=O)cc2)NC(=O)OC2COC3(C)OCCC23)cc1 (stereo not drawn) [Compound I-71],1.77 nM
9,CCN(Cc1ccccc1C(=O)Nc1sc2c(c1C(=O)O)CC(C)(C)CC2)c1ccc(CC(NC(=O)OC2COC3(C)OCCC23)C(O)CN(CC(C)C)S(=O)(=O)c2ccc(OC)cc2)cc1 (stereo not drawn) [Compound I-669],8.54 nM
10,COc1ccc(S(=O)(=O)N(CC(C)C)CC(O)C(Cc2ccc(NCc3ccccc3-c3sc4c(c3C(=O)O)CC(C)(C)CC4)cc2)NC(=O)OC2COC3OCC(OC)C23)cc1 (stereo not drawn) [Compound I-853],1.98 nM
11,COc1ccc(S(=O)(=O)N(CC(C)C)CC(O)C(Cc2ccc(OC3CCC(C(C)(C)C(=O)O)CC3)cc2)NC(=O)OC2COC3(C)OCCC23)cc1 (stereo not drawn) [Compound I-310],1.96 nM
12,COc1ccc(S(=O)(=O)N(CC(C)C)CC(O)C(Cc2ccc(NCC3=C(c4sc5c(c4C(=O)O)CC(C)(C)CC5)C4CC(C3)C4(C)C)cc2)NC(=O)OC2COC3(C)OCCC23)cc1 (stereo not drawn) [Compound I-626],4.58 nM
13,COc1ccc(S(=O)(=O)N(CC(C)C)CC(O)C(Cc2ccc(OCc3nccnc3-c3sc4c(c3C(=O)O)CC(C)(C)CC4)cc2)NC(=O)OC2COC3(C)OCCC23)cc1 (stereo not drawn) [Compound I-187],2.21 nM
14,COc1ccc(S(=O)(=O)N(CC(C)C)CC(O)C(Cc2ccc(N(C)CC3CCCCC3C(=O)Nc3sc4c(c3C(=O)O)CC(C)(C)CC4)cc2)NC(=O)OC2COC3(C)OCCC23)cc1 (stereo not drawn) [Compound I-622],3.71 nM
15,COc1ccc(S(=O)(=O)N(CC2CC2)CC(O)C(Cc2ccc(NCc3ccccc3-c3sc4c(c3C(=O)O)CC(C)(C)CC4)cc2)NC(=O)OC2COC3(C)OCCC23)cc1 (stereo not drawn) [Compound I-472],2.27 nM
16,COc1ccc(S(=O)(=O)N(CC(C)C)CC(O)C(Cc2ccc(N(C)Cc3cc(N4CC(C)(C)C4=O)ccc3-c3sc4c(c3C(=O)O)CC(C)(C)CC4)cc2)NC(=O)OC2COC3(C)OCCC23)cc1 (stereo not drawn) [Compound I-730],2.84 nM
